Test results as given in US4977141A, “Peptidyl α-aminoacyl aminodiol carbamates as anti-hypertensive agents” (G. D. Searle & Co., priority 1987, dated 1990).
Square brackets hold non-standard residues; d marks the D form. Peptide text beside a SMILES is read from it. * marks the point of attachment. Sta = CC(C)C[C@H](N)[C@@H](O)CC(=O)O; Isovaleryl = CC(C)CC(=O)*

Legend:
[1] = target: T1, human renin (Homo sapiens, UniProt P00797); assay: human renin inhibition in vitro assay; format: biochemical; conditions: pH 7.4, 37° C., two hours, human plasma substrate
T1 construct: purchased National Institute for Biological Standards, London
T1 sequence (P00797 67-406): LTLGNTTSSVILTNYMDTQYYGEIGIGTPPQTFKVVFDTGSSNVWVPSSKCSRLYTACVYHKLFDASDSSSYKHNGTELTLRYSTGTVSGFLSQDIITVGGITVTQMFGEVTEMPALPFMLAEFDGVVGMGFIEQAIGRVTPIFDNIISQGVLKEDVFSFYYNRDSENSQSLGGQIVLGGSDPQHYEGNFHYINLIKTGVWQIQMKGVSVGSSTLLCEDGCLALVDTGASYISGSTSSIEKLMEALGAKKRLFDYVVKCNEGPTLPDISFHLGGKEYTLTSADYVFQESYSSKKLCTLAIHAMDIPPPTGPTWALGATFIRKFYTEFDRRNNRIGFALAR
Description: Compounds of Formula I were evaluated as inhibitors of human renin in an in vitro assay, as follows: This human renin inhibition test has been previously described in detail [Papaioannou, et. al., Clinical and Experimental Hypertension, A7(9), 1243-1257 (1985)]. Human renin was obtained from the National Institute for Biological Standards, London. In a total volume of 0.25 mL 100 mM Tris-acetate buffer at PH 7.4, 25×10^-6 Goldblatt units of renin, 0.05 mL of plasma from human volunteers taking oral contraceptives, 6.0 mM sodium EDTA, 2.4 mM phenylmethyl sulfonyl fluoride, 1.5 mM 8-hydroxyquinoline, 0.4 mg/mL BSA, and 0.024 mg/mL neomycin sulfate were incubated for two hours at 37° C. in the presence or absence of renin inhibitors. The produced angiotensin I was determined by radioimmunoassay (New England Nuclear kit). Dipeptide glycols to be assayed were solubilized in either ethyl alcohol or DMSO and diluted with 100 mM Tris-acetate buffer at pH 7.4 to the appropriate concentration. The final concentration of organic solvent in the reaction mixture was less than 1%. Control incubations at 37° C. were used to correct for effects of organic solvent on renin activity.

[2] = target: T2, hog renin (Sus scrofa, UniProt A0A287APG1); assay: hog renin inhibition assay; format: biochemical; conditions: pH 7.4, 37° C., one hour, synthetic tetradecapeptide substrate
T2 construct: purchased Sigma Chemical Co
T2 sequence (A0A287APG1 24-407): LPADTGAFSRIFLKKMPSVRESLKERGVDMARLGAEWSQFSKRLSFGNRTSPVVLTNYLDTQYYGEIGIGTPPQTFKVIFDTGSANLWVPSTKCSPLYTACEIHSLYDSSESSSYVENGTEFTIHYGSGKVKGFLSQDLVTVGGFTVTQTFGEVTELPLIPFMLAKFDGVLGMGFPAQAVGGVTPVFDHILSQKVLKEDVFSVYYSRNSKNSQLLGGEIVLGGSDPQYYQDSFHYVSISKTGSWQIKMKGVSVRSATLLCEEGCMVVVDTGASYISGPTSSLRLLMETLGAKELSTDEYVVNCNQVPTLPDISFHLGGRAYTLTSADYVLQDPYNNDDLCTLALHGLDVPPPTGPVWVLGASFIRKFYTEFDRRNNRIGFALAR
Description: The hog renin inhibition assay was conducted in a manner similar to the human resin assay, with the following modification: Hog renin was purchased from Sigma Chemical Co. and the synthetic tetradecapeptide substrate was obtained from peninsula Labs Inc. In a final volume of 0.25 mL 100 mM Tris-acetate buffer at pH 7.4, 0.125 m units hog renin, 20 micromolar tetradecapeptide, 6 mM disodium EDTA, 3.2 mM phenylmethyl sulfonyl fluoride, 3 mM 8-hydroxyquinoline, 1.2 mg/mL BSA and 0.024 mg/mL neomycin sulfate were incubated for one hour at 37° C. in the presence or absence of renin inhibitors. The amount of angiotensin I produced was determined as for the human renin inhibition assay.

[3] = test system: Plasma Renin Activity; assay: Plasma Renin Activity of Sodium-Depleted Marmoset, oral activity; format: in vivo, Common marmosets (Callithrix jacchus); conditions: 20 mg/kg IG
Description: The oral activity of compounds of Formula I was determined in vivo in Marmoset monkeys in accordance with the following procedure: Common marmosets (Callithrix jacchus, Charles River) were placed on a modified high protein low sodium diet (Purina, St. Louis, Mo.) for 1 to 2 weeks. On the day of the test an animal was anesthetized with isoflurane and cannulated in the femoral artery and vein for blood pressure monitoring, intravenous saralasin infusion and blood sampling. After allowing the animal to recover from surgery for 2 hr, saralasin was infused at 1 microgram/min for 15 minutes to confirm that the animal's blood pressure was dependent on angiotensin II levels. The marmoset was allowed to stabilize for 30 min after the saralasin infusion. The test compound was administered orally and blood pressure was monitored for 2 hr. Blood samples were taken in K-EDTA for plasma renin activity before, 30 min, and 1 hr after compound administration.

[4] = test system: plasma renin activity (PRA); assay: plasma renin activity (PRA) reduction in Rhesus monkeys, intravenous; conditions: Macaca mulatta, 0.25 h, furosemide pre-treated Rhesus monkeys, dose reducing PRA to 50% of pretreatment control, read-out: Rhesus (in vivo) PRA Reduction ED50
Description: The effect of inhibitor on plasma renin activity (PRA) in Rhesus monkeys was determined as follows: Rhesus monkeys were pre-treated with furosemide (0.2 mg/kg; i.m.) followed by another equal does 6 hours later. Then, 24 hours after the first treatment, the animals were chaired and blood samples collected for pre-treatment controls; immediately thereafter dosing with drug was started. The compounds were administered intravenously every 30 min and blood samples were collected 15 min after each administration. PRA was determined by the method of Sealey and Laragh Cardiovascular Med. 2, 1079-1092 (1977), and the concentration of angiotensin I produced was determined by radioimmunoassay.

[5] = test system: aspartyl proteases such as pepsin, cathepsin D and renin; conditions: cited from earlier work
[6] = test system: blood pressure; conditions: after the injection of hog renin into nephrectomized rats; cited from earlier work

Work on `CC(C)C[C@H](NC(=O)[C@H](Cc1ccccc1)OC(=O)N1CCOCC1)C(=O)N[C@@H](CC1CCCCC1)[C@@H](O)[C@H](C)O` [Example 9, O-(N-morpholinocarbonyl)-3-L-phenyllactyl-L-leucinamide of (2S,3R,4S)-2-amino-1-cyclohexyl-3,4-dihydroxypentane] yielded an IC50 [1] of 0.1 µM and an IC50 [2] of 6.6 µM.

With `CC(C)C[C@H](NC(=O)[C@H](Cc1ccccc1)OC(=O)N1CCOCC1)C(=O)N[C@@H](CC1CCCCC1)[C@@H](O)[C@@H](O)CC(C)C` [Example 6, O-(N-morpholinocarbonyl)-3-L-phenyllactyl-L-leucinamide of (2S,3R,4S)-2-amino-1-cyclohexyl-3,4-dihydroxy-6-methylheptane] the “Plasma Renin Activity” value ([3]; 30 min, Animal No. 206) was 2.2 ng AI/ml/hr, the “Plasma Renin Activity” value ([3]; 30 min, Animal No. 207) was 0.2 ng AI/ml/hr and the “Plasma Renin Activity” value ([3]; 30 min, Animal No. 208) was 1.0 ng AI/ml/hr. For the same molecule, the “Plasma Renin Activity” value ([3]; 60 min, Animal No. 206) was 0.6 ng AI/ml/hr, the “Plasma Renin Activity” value ([3]; 60 min, Animal No. 207) was 0.9 ng AI/ml/hr and the “Plasma Renin Activity” value ([3]; 60 min, Animal No. 208) was 2.0 ng AI/ml/hr. For the same molecule, the “Plasma Renin Activity” value ([3]; Pretreatment, Animal No. 206) was 16.3 ng AI/ml/hr, the “Plasma Renin Activity” value ([3]; Pretreatment, Animal No. 207) was 16.4 ng AI/ml/hr and the “Plasma Renin Activity” value ([3]; Pretreatment, Animal No. 208) was 15.7 ng AI/ml/hr. It also gave an IC50 [1] of 0.07 µM, an ED50 [4] of 0.012 mg/kg and an IC50 [2] of 0.16 µM.

In the case of `CC(C)CC(=O)N[C@H](C(=O)N[C@H](C(=O)N[C@@H](CC(C)C)[C@@H](O)CC(=O)N[C@@H](C)C(=O)N[C@@H](CC(C)C)[C@@H](O)CC(=O)O)C(C)C)C(C)C` [pepstatin] (Isovaleryl-VV[Sta]A[Sta]-OH), the “inhibition of aspartyl proteases” value [5] is listed as “inhibitor of aspartyl proteases” and the “blood pressure reduction in vivo” value [6] is listed as “reduce blood pressure in vivo”.

In the case of `CC(C)C[C@H](NC(=O)[C@H](Cc1ccccc1)OC(=O)N1CCOCC1)C(=O)N[C@@H](CC1CCCCC1)[C@@H](O)CO` [Example 11, O-(N-morpholinocarbonyl)-3-L-phenyllactyl-L-leucinamide of (2S, 3R)-2-amino-1-cyclohexyl-3,4-dihydroxybutane], the “Plasma Renin Activity” value ([3]; 30 min, Animal No. 205) is reported as 0.6 ng AI/ml/hr, the “Plasma Renin Activity” value ([3]; 30 min, Animal No. 209) is reported as 1.1 ng AI/ml/hr and the “Plasma Renin Activity” value ([3]; 30 min, Animal No. 221) is reported as 48.5 ng AI/ml/hr. For the same molecule, the “Plasma Renin Activity” value ([3]; 60 min, Animal No. 205) was 4.5 ng AI/ml/hr, the “Plasma Renin Activity” value ([3]; 60 min, Animal No. 209) was 0.0 ng AI/ml/hr and the “Plasma Renin Activity” value ([3]; 60 min, Animal No. 221) was 24.9 ng AI/ml/hr. The “Plasma Renin Activity” value ([3]; Pretreatment, Animal No. 205) was 17.5 ng AI/ml/hr, the “Plasma Renin Activity” value ([3]; Pretreatment, Animal No. 209) was 39.3 ng AI/ml/hr and the “Plasma Renin Activity” value ([3]; Pretreatment, Animal No. 221) was 37.6 ng AI/ml/hr. The IC50 [1] was 0.49 µM, the ED50 [4] was 1.6 mg/kg and the IC50 [2] was 7.2 µM.
